From patent publication US10806721B2, “Formulation for use in the treatment of uremic pruritus” (DRUG DELIVERY SOLUTIONS, priority 2016, dated 2020)

Key:
[1] = Degradation of histidine in the cream of Example 1 exposed to urea; format: physicochemical; settings: cream of Example 1 with 10 w/w % urea; six weeks at 40° C.
Method: The degradation process was followed over time and after six weeks at 40° C. only 20% histidine was left in the cream having 10 w/w % urea.

[2] = system: reconstructed human epidermis (RHE); test: ELISA of carbamoylated proteins in reconstructed human epidermis exposed to urea from the stratum corneum side (Example 3); format: cell-based; settings: for ELISA reading, carbamoylated proteins, Day 3: harvested day 3; for ELISA reading, carbamoylated proteins, Day 6: harvested day 6; for carbamylation of proteins (result in words): exposure on top of RHE skin samples, within 6 days
Method: (§1) To further investigate possible carbamylation in human skin in UP (Uremic Pruritus) the inventors conducted a series of studies in the reconstructed human epidermis (RHE) model. The 4 cm^2 large skin samples were delivered from Episkin® in 6 well plates each with a volume of 1 ml. The experiments were carried out in 18-25 days old skin samples. RHE is a standardized technology used to investigate metabolic, toxic and inflammatory reactions in the skin (13). The skin samples were developed from human epidermal stem cells. They were developed on a […] net with an underlying growth medium. The RHE contains all the different cell layers in the epidermis, including stratum corneum. The samples are kept at 37° C. in a 5% CO2 atmosphere. They are handled under sterile conditions. New growth medium is added daily. The 4 cm^2 large skin samples were ready for use after 18 days' development; a time span similar to the normal turnover of human skin.
(§2) 12 individual experiments were carried out including 2 controls. Growth media (1 ml) were replaced daily according to the standard protocol. 6 of the samples were harvested at day 3 and 6 at day 6 and immediately frozen at minus 80° C. until protein analysis. Parts of all samples were sent for histologic examination.
(§3) The following exposures (individual experiments), all from stratum corneum side of the skin sample, were made.
1. Controls: Left untreated.
(§4) 2. Urea in an aqueous solution in the same amount—calculated as mg/cm^2 skin—, as in UP. This calculated amount corresponds to 0.3 mg/cm^2, based on calculation of the sum of the average serum levels of urea in uremic patients, urea from sweat, and contribution from active transport of urea into the cells in epidermis. The addition of urea is done by the addition of 200 μl of a solution of 6 mg urea/ml) to the surface of the skin samples.
(§5) 3. As under above item 2 but in double amount (0.6 mg/cm^2).
(§6) 4. As under above item 3 and added 200 μl of a 1% histidine solution.
(§7) 5. 5% commercially available urea cream dosed as intended human use
6. 10% commercially available urea cream dosed as intended human use
The skin samples harvested at day 3 were exposed day 0 to 2-6 and day 1 to 2-4. (tabl. 1)
The skin samples is harvested at day 6 were exposed as above and further day 3 to 2-6. In agreement with Table 1 the aqueous urea solution was absorbed immediately through the skin samples. The two creams left a deposit on top of the skin and were therefore only applied twice; day 0 and day 3 (for the 6-day experiment). Daily exposures were abstained to minimize the risk of infection. […] Further the urea concentrations from experiments 2, 3 and 4 harvested day 6 may have been relatively low due to only one supplementary exposure day 3.
(§8) Protein analysis was made according to a previous developed method (14). Carbamoylated proteins from the skin samples were coated to ELISA wells and quantified using a using a primary polyclonal anti-homocitrullin antibody and a secondary labelled polyclonal detection antibody.

[3] = system: reconstructed human epidermis (RHE); test: Histological examination of reconstructed human epidermis exposed to urea (Example 3); format: cell-based
Method: as §1, §2, §3, §4, §5, §6, §7
6. 10% commercially available urea cream dosed as intended human use […]

[4] = system: Human Reconstructed Epidermis (RHE); test: ELISA of carbamoylated proteins in RHE with urea in the growth medium (Example 4); format: cell-based
From the text: as §8
The same method as described in example 3 was used. The studies were based on the use of the Human Reconstructed Epidermis (RHE) model purchased from Episkin®. Three experiments were made in duplicate including 2 controls. Growth media (1 ml) with and without additions (see below) were replaced daily accordingly to the standard protocol. In contrast to Example 3 the urea exposure was made by addition of urea to the growth medium. Experiment 1 corresponds to the two controls; experiment 2 was with growth medium with 4 mg/ml urea; experiment 3 was with growth medium with 4 mg/ml urea and with addition of 5 mg […] cream with 2% amino acids applied on top of RHE skin surface at Day 0 and Day 3. All 6 skin samples looked macroscopically healthy when they were harvested after 6 days. There were no signs of infection or necrosis. They were immediately frozen at minus 80° C. until protein analysis. Parts of all samples were sent for histological examination.
Protein carbamoylated was investigated using the same method as in Experiment 3.

[5] = 0.5% histidine added to urea conc. as in UP (high) 12 mg
[6] = Urea conc. as in UP (high) 12 mg, 0.6 mg/cm^2 on skin surface
[7] = Urea conc. as in UP (moderate) 6 mg, 0.3 mg/cm^2 on skin surface

SMILES | histidine left in the cream [1] | ELISA reading, carbamoylated proteins, Day 3 [2, 5] | ELISA reading, carbamoylated proteins, Day 6 [2, 5] | carbamylation of proteins (result in words) [2] | effect on urea-induced edema and cell death (histology) ([3]; histidine added to urea 0.6 mg/cm^2, harvested both day 3 and day 6) | ELISA reading, carbamoylated proteins, Day 3 [2, 6] | ELISA reading, carbamoylated proteins, Day 6 [2, 6] | ELISA reading, carbamoylated proteins, Day 3 [2, 7] | ELISA reading, carbamoylated proteins, Day 6 [2, 7] | Elisa reading, carbamoylated proteins, average of two experiments ([4]; GM + 4 mg urea/ml, harvested after 6 days) | level of protein carbamylation (result in words) ([4]; growth medium with 4 mg/ml urea, 6 days) | histological changes (edema and disruptions in stratum corneum, premature cell death in stratum spinosum) ([3]; harvested day 3) | histological changes ([3]; harvested day 6)
N[C@@H](Cc1c[nH]cn1)C(=O)O [histidine] | 20% | 0.312 absorbance units | 0.321 absorbance units | prevented this carbamylation | can counteract this effect |  |  |  |  |  |  |  | 
NC(N)=O [Urea] |  |  |  | could be demonstrated |  | 0.316 absorbance units | 0.475 absorbance units | 0.377 absorbance units | 0.368 absorbance units | 0.68 absorbance units | highest level of carbamylation | significant changes | recovered to a certain extent
